Experimental findings from patent publication US20170342025A1, “ANTIMICROBIAL COMPOUNDS, COMPOSITIONS AND METHODS” (Swansea University, priority 2014, published 2017) are described below.

Structures are written as SMILES. Read-outs that look alike come from different tables or passages of the source.

Assay [1] relates to Escherichia coli (strain JM109). Briefly: MIC determination against Escherichia coli (Andrews protocol). The assay is classed as cell-based. The note with it: for MIC: Escherichia coli, read-out: MIC E. coli. On the procedure: (§1) Minimum Inhibitory Concentrations (MICs) for the compounds prepared were determined against Escherichia coli (strain JM109) and Staphylococcus aureus (strain 9518) using the protocols described by Andrews (J. Antimicrob. Chemother., 2001, 48, Suppl. S1, 5-16).

For assay [2], the system named is Staphylococcus aureus (strain 9518). Put plainly: MIC determination against Staphylococcus aureus (Andrews protocol). The class given is cell-based. The note with it: for MIC: Staphylococcus aureus, read-out: MIC S. aureus. On the procedure: as §1
Where [3] appears, read: Staphylococcus aureus strain 9518.

A word on the MIC: it is the smallest concentration in the dilution series that meets the test's criterion for growth inhibition. In the case of `N=C(N)NCc1ccc(NS(=O)(=O)c2ccc(Cl)cc2)cc1.O=C(O)C(F)(F)F` [Compound 55b, Amino((4-((4-chlorophenyl)sulfonamido)benzyl)amino)methaniminium 2,2,2-trifluoroacetate], the MIC in assay [1] (Escherichia coli strain JM109) and in assay [2] (setting [3]) was 32 to 100 µg/mL in each case.

With `Cl.N=C(N)N/N=C/c1nccn1Cc1ccc(Cl)cc1` [Compound 61b, (E)-Amino(2-((1-(4-chlorobenzyl)-1H-imidazol-2-yl)methylene)hydrazinyl) methaniminium chloride], the MIC in assay [1] (Escherichia coli strain JM109) and in assay [2] (setting [3]) was 10 to 32 µg/mL throughout.

Take `N=C(N)NCc1cccc(OCc2ccccc2)c1.O=C(O)C(F)(F)F` [Compound 4a, 1-{[3-(benzyloxy)phenyl]methyl}guanidine 2,2,2-trifluoroacetate]: the MIC in assay [1] is greater than 100 µg/mL; in assay [2], 1 to 10 µg/mL.

On to `N=C(N)Nc1ccc(OCc2ccc(Cl)cc2)cc1.O=C(O)C(F)(F)F` [Compound 23b, 1-{4-[(4-chlorophenyl)methoxy]phenyl}guanidine 2,2,2-trifluoroacetate], for which the minimal inhibitory concentration (MIC) in assay [1] (Escherichia coli strain JM109) and in assay [2] (setting [3]) was greater than 100 µg/mL in each case.

For `N=C(N)NCc1cccc(NS(=O)(=O)c2cccc(Cl)c2Cl)c1.O=C(O)C(F)(F)F` [Compound 55g, Amino((3-((2,3-dichlorophenyl)sulfonamido)benzyl)amino)methaniminium 2,2,2-trifluoroacetate], the MIC in assay [1] (Escherichia coli strain JM109) and in assay [2] (setting [3]) was 32 to 100 µg/mL throughout.

With `N=C(N)NCc1cccc(NC(=O)c2ccccc2)c1.O=C(O)C(F)(F)F` [Compound 57a, Amino((3-benzamidobenzyl)amino)methaniminium 2,2,2-trifluoroacetate], the MIC in assay [1] and in assay [2] was 32 to 100 µg/mL each time.

Take `N=C(N)NCc1cccc(NS(=O)(=O)c2cccc(C(F)(F)F)c2)c1.O=C(O)C(F)(F)F` [Compound 55h, Amino((3-((3-(trifluoromethyl)phenyl)sulfonamido)benzyl)amino) methaniminium 2,2,2-trifluoroacetate]: the minimum inhibitory concentration (MIC) in assay [1] (Escherichia coli strain JM109) and in assay [2] (setting [3]) was 32 to 100 µg/mL throughout.

As for `N=C(N)NOCc1cccc(Oc2ccccc2)c1.O=C(O)C(F)(F)F` [Compound 41b, 1-[(3-phenoxyphenyl)methoxy]guanidine 2,2,2-trifluoroacetate], the MIC in assay [1] (Escherichia coli strain JM109) and in assay [2] (setting [3]) was greater than 100 µg/mL each time.

For the molecule `N=C(N)Nc1ccc(CNS(=O)(=O)c2ccccc2)cc1.O=C(O)C(F)(F)F` [Compound 59b, Amino((4-(phenylsulfonamidomethyl)phenyl)amino)methaniminium 2,2,2-trifluoroacetate], the MIC in assay [1] and in assay [2] was 32 to 100 µg/mL each time.

For `COc1ccc(CNC(=N)N)cc1OCc1ccc(Cl)cc1.O=C(O)C(F)(F)F` [Compound 4n, 1-({3-[(4-chlorophenyl)methoxy]-4-methoxyphenyl}methyl)guanidine 2,2,2-trifluoroacetate], the MIC is greater than 100 µg/mL in assay [1] and 32 to 100 µg/mL in assay [2].

Regarding `Cl.N=C(N)N/N=C/c1cccc(OCc2cccc(Cl)c2)c1Cl` [Compound 51m, (E)-Amino(2-(2-chloro-3-((3-chlorobenzyl)oxy)benzylidene)hydrazinyl) methaniminium chloride], the MIC in assay [1] (Escherichia coli strain JM109) lay within 1 to 10 µg/mL; in assay [2] (setting [3]) it was 10 to 32 µg/mL.

Regarding `Cl.N=C(N)N/N=C/c1nccn1Cc1ccc(C(F)(F)F)cc1` [Compound 61d, (E)-Amino(2-((1-(4-(trifluoromethyl)benzyl)-1H-imidazol-2-yl)methylene) hydrazinyl)methaniminium chloride], the MIC in assay [1] (Escherichia coli strain JM109) was 1 to 10 µg/mL; in assay [2] (setting [3]), 10 to 32 µg/mL.

As for `N=C(N)NCc1cccc(OCc2cccc(Cl)c2Cl)c1.O=C(O)C(F)(F)F` [Compound 4g, 1-({3-[(2,3-dichlorophenyl)methoxy]phenyl}methyl)guanidine 2,2,2-trifluoroacetate], the MIC in assay [1] and in assay [2] was 10 to 32 µg/mL in each case.

`N=C(N)NCc1ccc(N)cc1.O=C(O)C(F)(F)F` [Compound 53b, Amino((4-aminobenzyl)amino)methaniminium 2,2,2-trifluoroacetate]: the MIC in assay [1] and in assay [2] was 32 to 100 µg/mL in each case.

As for `N=C(N)NCc1ccc(OCc2ccccc2)cc1.O=C(O)C(F)(F)F` [Compound 19a, 1-(4-(benzyloxy)benzyl)guanidine 2,2,2-trifluoroacetate], the MIC is greater than 100 µg/mL in assay [1] (Escherichia coli strain JM109) and 10 to 32 µg/mL in assay [2] (setting [3]).

With `N=C(N)N1CCN(c2ccc(Cl)cc2)CC1.O=C(O)C(F)(F)F.O=C(O)C(F)(F)F` [Compound 44a, 4-(4-chlorophenyl)piperazine-1-carboximidamide bis-(2,2,2-trifluoroacetate)], the MIC in assay [1] (Escherichia coli strain JM109) and in assay [2] (setting [3]) was greater than 100 µg/mL throughout.

As for `Cl.N=C(N)N/N=C/c1cccn1Cc1cccc(Cl)c1` [Compound 61e, (E)-Amino(2-((1-(3-chlorobenzyl)-1H-pyrrol-2-yl)methylene)hydrazinyl) methaniminium chloride], the MIC in assay [1] (Escherichia coli strain JM109) lay within 32 to 100 µg/mL; in assay [2] (setting [3]), 10 to 32 µg/mL.

Regarding `N=C(N)NCc1cccc(OCc2ccc(Cl)c(Cl)c2)c1.O=C(O)C(F)(F)F` [Compound 4e, 1-({3-[(3,4-dichlorophenyl)methoxy]phenyl}methyl)guanidine 2,2,2-trifluoroacetate], the MIC in assay [1] lay within 10 to 32 µg/mL; in assay [2], 1 to 10 µg/mL.

Turning to `N=C(N)NCc1ccc(NS(=O)(=O)c2cccc(C(F)(F)F)c2)cc1.O=C(O)C(F)(F)F` [Compound 55d], in assay [1] (Escherichia coli strain JM109), the “MIC E. coli” value was “+ (32-100 μg/mL)”. The “MIC S. aureus” value in assay [2] (setting [3]) is given as “+ (32-100 μg/mL)”.

Consider `N=C(N)Nc1ccc(CNC(=O)c2ccccc2)cc1.O=C(O)C(F)(F)F` [Compound 59a, Amino((4-(benzamidomethyl)phenyl)amino)methaniminium 2,2,2-trifluoroacetate], for which the MIC in assay [1] and in assay [2] was 32 to 100 µg/mL in each case.

As to `N=C(N)NCc1c(F)ccc(OCc2cccc(Cl)c2Cl)c1F.O=C(O)C(F)(F)F` [Compound 4o, 1-({3-[(2,3-dichlorophenyl)methoxy]-2,6-difluorophenyl}methyl)guanidine 2,2,2-trifluoroacetate], the MIC in assay [1] and in assay [2] was 1 to 10 µg/mL in each case.

As to `COc1cccc(N2CCN(C(=N)N)CC2)c1.O=C(O)C(F)(F)F.O=C(O)C(F)(F)F` [Compound 44b, 4-(3-methoxyphenyl)piperazine-1-carboximidamide bis-(2,2,2-trifluoroacetate)], the MIC in assay [1] (Escherichia coli strain JM109) and in assay [2] (setting [3]) was greater than 100 µg/mL in each case.

`Cl.N=C(N)N/N=C/c1cccn1Cc1ccc(C(F)(F)F)cc1` [Compound 61h, (E)-Amino(2-((1-(4-(trifluoromethyl)benzyl)-1H-pyrrol-2-yl)methylene) hydrazinyl)methaniminium chloride]: the MIC in assay [1] (Escherichia coli strain JM109) and in assay [2] (setting [3]) was 10 to 32 µg/mL each time.

For `COc1ccc(CNC(=N)N)cc1OCc1cccc(Cl)c1.O=C(O)C(F)(F)F` [Compound 4m, 1-({3-[(3-chlorophenyl)methoxy]-4-methoxyphenyl}methyl)guanidine 2,2,2-trifluoroacetate], the MIC in assay [1] and in assay [2] was greater than 100 µg/mL in each case.

On to `Cl.N=C(N)N/N=C/c1cccc(OCc2ccc(C(F)(F)F)cc2)c1` [Compound 49f, (E)-Amino(2-(3-((4-(trifluoromethyl)benzyl)oxy)benzylidene)hydrazinyl) methaniminium chloride], for which the “MIC E. coli” value in assay [1] (Escherichia coli strain JM109) is “++ (MIC 10-32 μg/mL)”. In assay [2] (setting [3]), the “MIC S. aureus” value is listed as “+++ (MIC 1-10 μg/mL)”.
